A word on the IC50: it is the midpoint of a concentration-inhibition curve. Low readings indicate greater potency, high ones weaker potency.

We go through 13 compounds from patent publication US20260356856A1, “KRAS G12S AND G12C INHIBITORS” (MIRATI THERAPEUTICS, INC., priority 2023, published 2026).

In one test the target is T1, KRas G12C (Homo sapiens, UniProt P01116, G12C).
T1 construct: Biotinylated KRas (corresponding to amino acids 1-169, produced at Accelegan Inc.); biotin (biotinylated); purchased Accelegan Inc
In words: KRas binding assay, TR-FRET displacement of Cy5 labelled tracer. The note with it: 60-minute incubation at room temperature, 1% DMSO, pH 7.5. In a few lines: (§1)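 Final conditions: 1% DMSO, pH 7.5 HEPES buffer, 60 min, room temperature. Protein: biotin-KRas 1-169 with terbium streptavidin. Output: IC50, four-parameter fit of POC.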
Background: TR-FRET usually uses a lanthanide donor and a delayed reading to cut background.

Another test has as its target T2, KRas G12S (Homo sapiens, UniProt P01116, G12S).
T2 construct: Biotinylated KRas (corresponding to amino acids 1-169, produced at Accelegan Inc.); biotin (biotinylated); purchased Accelegan Inc
The description is as above. The conditions noted are these: 60-minute incubation at room temperature, 1% DMSO, pH 7.5. An outline of the steps:
as §1

In the next test the target is T3, KRas WT (Homo sapiens, UniProt P01116).
T3 construct: Biotinylated KRas (corresponding to amino acids 1-169, produced at Accelegan Inc.); biotin (biotinylated); purchased Accelegan Inc
The description is as above. The conditions noted are these: 60-minute incubation at room temperature, 1% DMSO, pH 7.5. An outline of the steps:
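Assay buffer was HEPES (50 mM, pH 7.5) with MgCl2 (5 mM), DTT (1 mM) and Tween-20 (0.005%). Biotinylated KRas spanning residues 1-169 met tracer, terbium streptavidin and compound (1% DMSO, final) for 60 minutes at ambient temperature before reading. POC values were fitted for IC50.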

In test [1] the target is T4, KRas-mediated phosphorylation of ERK in MKN1 cells (Homo sapiens, UniProt P01116).
T4 construct: pERK HTRF read-out
In words: Inhibition of KRas-mediated phosphorylation of ERK (HTRF), MKN1 cells. In kind it is cell-based. The note with it: MKN1 cells (KRas WT); HTRF pERK; 3 h incubation. As for the experimental part:
Inhibition of KRas Phosphorylation of ERK (HTRF) by Exemplary Compounds of Formula (Ia) or (Ib)
Cisbio HTRF Advanced pERK Assay Catalog #64AERPEH • Cells: MKN1, PSN1 • Procedure: • 1. Day 1: Seed 6,000 cells/well −25 μl/well in 384-well white solid bottom plate; RPM1_10% FBS. Incubate overnight at 37 °C/5% CO2. • 2.

Test [2] has as its target T5, KRas-mediated phosphorylation of ERK in A549 cells (Homo sapiens, UniProt P01116, G12S).
T5 construct: pERK HTRF read-out
In words: Inhibition of KRas-mediated phosphorylation of ERK (HTRF), A549 cells. The note with it: HTRF pERK, 3 h incubation. In kind it is cell-based.

Test [3] deals with T6, KRas-mediated phosphorylation of ERK in H358 cells (Homo sapiens, UniProt P01116, G12C).
T6 construct: pERK HTRF read-out
In words: Inhibition of KRas-mediated phosphorylation of ERK (HTRF), H358 cells. It counts as cell-based. The conditions noted are these: HTRF pERK, 3 h incubation.

SMILES strings stand for the structures.

T2 sequence (P01116 1-169 isoform P01116-2 G12S): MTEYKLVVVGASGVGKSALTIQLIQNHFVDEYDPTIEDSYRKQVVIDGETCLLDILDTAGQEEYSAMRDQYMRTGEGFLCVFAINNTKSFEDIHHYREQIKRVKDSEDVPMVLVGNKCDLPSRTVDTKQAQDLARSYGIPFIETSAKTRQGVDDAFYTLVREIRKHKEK
T6 sequence (P01116 1-188 isoform P01116-2 G12C): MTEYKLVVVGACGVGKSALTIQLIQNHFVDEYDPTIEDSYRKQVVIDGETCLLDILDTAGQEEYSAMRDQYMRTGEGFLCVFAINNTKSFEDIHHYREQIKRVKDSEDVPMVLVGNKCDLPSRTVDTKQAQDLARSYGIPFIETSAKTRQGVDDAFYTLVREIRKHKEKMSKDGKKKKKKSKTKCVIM
T3 sequence (P01116 1-169 isoform P01116-2): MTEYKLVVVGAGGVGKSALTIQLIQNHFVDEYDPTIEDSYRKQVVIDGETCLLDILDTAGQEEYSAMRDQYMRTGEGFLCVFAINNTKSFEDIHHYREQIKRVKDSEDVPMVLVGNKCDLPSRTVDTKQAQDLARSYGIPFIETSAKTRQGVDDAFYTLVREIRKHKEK
T4 sequence (P01116 1-188 isoform P01116-2): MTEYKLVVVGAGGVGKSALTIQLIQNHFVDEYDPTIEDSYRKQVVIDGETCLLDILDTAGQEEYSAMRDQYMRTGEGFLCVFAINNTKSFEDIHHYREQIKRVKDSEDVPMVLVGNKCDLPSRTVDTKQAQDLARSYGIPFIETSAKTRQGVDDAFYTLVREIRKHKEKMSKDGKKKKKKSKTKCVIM
T1 sequence (P01116 1-169 isoform P01116-2 G12C): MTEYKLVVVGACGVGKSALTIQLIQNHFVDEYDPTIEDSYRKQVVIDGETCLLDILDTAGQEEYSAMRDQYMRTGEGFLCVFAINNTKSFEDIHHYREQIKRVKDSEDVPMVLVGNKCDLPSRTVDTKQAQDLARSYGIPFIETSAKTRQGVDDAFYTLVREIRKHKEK
T5 sequence (P01116 1-188 isoform P01116-2 G12S): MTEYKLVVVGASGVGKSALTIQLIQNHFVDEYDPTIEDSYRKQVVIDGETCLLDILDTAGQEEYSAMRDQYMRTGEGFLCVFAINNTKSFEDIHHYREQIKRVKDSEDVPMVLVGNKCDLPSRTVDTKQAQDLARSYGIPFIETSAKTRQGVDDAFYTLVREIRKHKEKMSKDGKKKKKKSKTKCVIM

For `Cc1ccn(C(=O)C2CCCN(c3nc(OC[C@@]45CCCN4C[C@H](F)C5)nc4c(F)c(-c5csc6ccc(N)nc56)c(Cl)cc34)CC2)n1` (stereo partly drawn) [Example 215, (1-(7-(5-aminothieno[3,2-b]pyridin-3-yl)-6-chloro-8-fluoro-2-(((2R,7aS)-2-fluorotetrahydro-1H-pyrrolizin-7a(5H)-yl)methoxy)quinazolin-4-yl)azepan-4-yl)(3-methyl-1H-pyrazol-1-yl)methanone], the concentration for half-maximal inhibition (IC50) at KRas G12C was 2400 nM; at KRas G12S, 169 nM; on KRas WT, 11400 nM; in test [1] it was 3920 nM; in test [2], 242 nM; in test [3] it was more than 10000 nM.
`CN1CC2(CCN(c3nc(OC[C@@]45CCCN4C[C@H](F)C5)nc4c(F)c(-c5ccc(F)c6sc(N)c(C#N)c56)c(Cl)cc34)CC2)C1=O` [Example 303, 2-amino-4-(6-chloro-8-fluoro-2-(((2R,7aS)-2-fluorotetrahydro-1H-pyrrolizin-7a(5H)-yl)methoxy)-4-(2-methyl-1-oxo-2,7-diazaspiro[3.5]nonan-7-yl)quinazolin-7-yl)-7-fluorobenzo[b]thiophene-3-carbonitrile]: the half-maximal inhibitory concentration (IC50) was determined as 3 nM on KRas G12C; 3 nM on KRas G12S; 4 nM at KRas WT; 4 nM in test [1]; 59 nM in test [2]; 14 nM in test [3].
With `CCc1c(F)ccc2cc(O)cc(-c3ncc4c(N(C)CCCS(=O)(=O)n5cccn5)nc(OC[C@@]56CCCN5C[C@H](F)C6)nc4c3F)c12` [Example 230, 4-(4-((3-((1H-pyrazol-1-yl)sulfonyl)propyl)(methyl)amino)-8-fluoro-2-(((2R,7aS)-2-fluorotetrahydro-1H-pyrrolizin-7a(5H)-yl)methoxy)pyrido[4,3-d]pyrimidin-7-yl)-5-ethyl-6-fluoronaphthalen-2-ol], the IC50 at KRas G12C came to 134 nM; at KRas G12S, 123 nM; at KRas WT, 91 nM; in test [1], 394 nM; in test [2] it was 4350 nM; in test [3], 1500 nM.
`COCC(C)OC(=O)C1CCN(c2nc(OC[C@@]34CCCN3C[C@H](F)C4)nc3c(F)c(-c4ccc(F)c5sc(N)c(C#N)c45)c(Cl)cc23)CC1` (stereo partly drawn) [Example 240, 1-methoxypropan-2-yl 1-(7-(2-amino-3-cyano-7-fluorobenzo[b]thiophen-4-yl)-6-chloro-8-fluoro-2-(((2R,7aS)-2-fluorotetrahydro-1H-pyrrolizin-7a(5H)-yl)methoxy)quinazolin-4-yl)piperidine-4-carboxylate]: the 50% inhibitory concentration (IC50) amounted to 66 nM on KRas G12C; 62 nM on KRas G12S; 16 nM at KRas WT; 44 nM in test [1]; 775 nM in test [2]; 658 nM in test [3].
Consider `CC(=O)N(C)C(=O)C1CCCN(c2nc(OC[C@@]34CCCN3C[C@H](F)C4)nc3c(F)c(-c4ccc(F)c5sc(N)c(C#N)c45)c(Cl)cc23)CC1` (stereo partly drawn) [Example 255, N-acetyl-1-(7-(2-amino-3-cyano-7-fluorobenzo[b]thiophen-4-yl)-6-chloro-8-fluoro-2-(((2R,7aS)-2-fluorotetrahydro-1H-pyrrolizin-7a(5H)-yl)methoxy)quinazolin-4-yl)-N-methylazepane-4-carboxamide], for which the IC50 at KRas G12C is 14 nM; on KRas G12S, 11 nM; at KRas WT, 14 nM; in test [1], 41 nM; in test [2], 28 nM; in test [3], 29 nM.
Turning to `CCc1c(F)ccc2cc(O)cc(-c3ncc4c(N(C)CCN(C)C(=O)n5nccn5)nc(OC[C@@]56CCCN5C[C@H](F)C6)nc4c3F)c12` (single isomer, unassigned) [Example 207], the IC50 amounted to 22 nM on KRas G12C; 66 nM on KRas G12S; 238 nM at KRas WT; 1390 nM in test [1]; 6650 nM in test [2]; 34 nM in test [3].
For `CCc1c(F)ccc2cc(O)cc(-c3ncc4c(N5CCC(C(=O)n6cc(C)cn6)CC5)nc(OC[C@@]56CCCN5C[C@H](F)C6)nc4c3F)c12` [Example 57, (1-(7-(8-ethyl-7-fluoro-3-hydroxynaphthalen-1-yl)-8-fluoro-2-(((2R,7aS)-2-fluorotetrahydro-1H-pyrrolizin-7a(5H)-yl)methoxy)pyrido[4,3-d]pyrimidin-4-yl)piperidin-4-yl)(4-methyl-1H-pyrazol-1-yl)methanone], the 50% inhibitory concentration (IC50) at KRas G12C stood at 96 nM; on KRas G12S, 66 nM; on KRas WT it was 107 nM; in test [1], 8500 nM; in test [2], 200 nM; in test [3], 5580 nM.
Regarding `CCc1c(F)ccc2cc(O)cc(-c3ncc4c(N(C)CCNC(=O)n5cncn5)nc(OC[C@@]56CCCN5C[C@H](F)C6)nc4c3F)c12` [Example 225, N-(2-((7-(8-ethyl-7-fluoro-3-hydroxynaphthalen-1-yl)-8-fluoro-2-(((2R,7aS)-2-fluorotetrahydro-1H-pyrrolizin-7a(5H)-yl)methoxy)pyrido[4,3-d]pyrimidin-4-yl)(methyl)amino)ethyl)-1H-1,2,4-triazole-1-carboxamide], the concentration for half-maximal inhibition (IC50) turned out to be 6 nM at KRas G12C; 18 nM at KRas G12S; 30 nM on KRas WT; 237 nM in test [1]; 2730 nM in test [2]; 13 nM in test [3].
For `CC(=O)N(C)C(=O)[C@H]1C[C@@H]2CN(c3nc(OC[C@@]45CCCN4C[C@H](F)C5)nc4c(F)c(-c5ccc(F)c6sc(N)c(C#N)c56)c(Cl)cc34)C[C@@H]2C1` (atropisomer, axis not shown; (aR)) [Example 236, (3aR,5S,6aS)-N-acetyl-2-((S)-7-(2-amino-3-cyano-7-fluorobenzo[b]thiophen-4-yl)-6-chloro-8-fluoro-2-(((2R,7aS)-2-fluorotetrahydro-1H-pyrrolizin-7a(5H)-yl)methoxy)quinazolin-4-yl)-N-methyloctahydrocyclopenta[c]pyrrole-5-carboxamide], the half-inhibitory concentration (IC50) was 7 nM on KRas G12C; 15 nM at KRas G12S; 10 nM at KRas WT; 41 nM in test [1]; 104 nM in test [2]; 108 nM in test [3].
Turning to `Cc1ccn(C(=O)CCCN(C)c2cc(O[C@@H](C)[C@@H]3CCCN3C)nc(-c3noc([C@@]4(C)CCCc5sc(N)c(C#N)c54)n3)n2)n1` [Example 322, (S)-2-amino-4-methyl-4-(3-(4-(methyl (4-(3-methyl-1H-pyrazol-1-yl)-4-oxobutyl)amino)-6-((S)-1-((S)-1-methylpyrrolidin-2-yl)ethoxy)pyrimidin-2-yl)-1,2,4-oxadiazol-5-yl)-4,5,6,7-tetrahydrobenzo[b]thiophene-3-carbonitrile], the 50% inhibitory concentration (IC50) at KRas G12C was 10 nM; at KRas G12S, 20 nM; on KRas WT, 525 nM; in test [1] it was 7310 nM; in test [2] it was 96 nM; in test [3], 9590 nM.
Turning to `CN(CCN(C)c1nc(OC[C@@]23CCCN2C[C@H](F)C3)nc2c(F)c(-c3ccc(F)c4sc(N)c(C#N)c34)c(Cl)cc12)C(=O)n1ccnn1` (single isomer, unassigned) [Example 203], the IC50 was less than 2 nM on KRas G12C; 3 nM at KRas G12S; 4 nM at KRas WT; 101 nM in test [1]; 195 nM in test [2]; 1 nM in test [3].
Consider `CN(CCCC(=O)Oc1cccc(F)c1)c1nc(OC[C@@]23CCCN2C[C@H](F)C3)nc2c(F)c(-c3ccc(F)c4sc(N)c(C#N)c34)c(Cl)cc12` [Example 198, 3-fluorophenyl 4-((7-(2-amino-3-cyano-7-fluorobenzo[b]thiophen-4-yl)-6-chloro-8-fluoro-2-(((2R,7aS)-2-fluorotetrahydro-1H-pyrrolizin-7a(5H)-yl)methoxy)quinazolin-4-yl)(methyl)amino)butanoate], for which the 50% inhibitory concentration (IC50) was found to be 2 nM on KRas G12C; 14 nM at KRas G12S; 77 nM at KRas WT; 159 nM in test [1]; 489 nM in test [2]; 28 nM in test [3].
For `CCc1c(F)ccc2cc(O)cc(-c3ncc4c(N(C)CCN(C)C(=O)n5cncn5)nc(OC[C@@]56CCCN5C[C@H](F)C6)nc4c3F)c12` [Example 223, N-(2-((7-(8-ethyl-7-fluoro-3-hydroxynaphthalen-1-yl)-8-fluoro-2-(((2R,7aS)-2-fluorotetrahydro-1H-pyrrolizin-7a(5H)-yl)methoxy)pyrido[4,3-d]pyrimidin-4-yl)(methyl)amino)ethyl)-N-methyl-1H-1,2,4-triazole-1-carboxamide], the IC50 at KRas G12C was 42 nM; on KRas G12S, 53 nM; on KRas WT it was 164 nM; in test [1], 569 nM; in test [2], 2390 nM; in test [3], 17 nM.
